Values quoted from earlier work in patent US20240315972A1, “PROTEIN CONTAINING BIO-ACTIVE COMPOSITIONS COMPRISING CELLULOSE MICROPARTICLE CARRIERS” (priority 2021, published 2024).

How the values were obtained:
large native proteins = settings: versus its mesophilic analogue
[1] = test system: respiratory syncytial virus (RSV); settings: in vitro
[2] = test system: herpes simplex virus type 1 (HSV-1); settings: in vitro
[3] = test system: interferon (IFN) signaling; settings: 5 BAEE U/mL (4.5 μg/mL porcine trypsin)

Substance: Trypsin
- Effectiveness in degrading large native proteins relative to mesophilic analogue (large native proteins): 3-12 times
- Efficacy against RSV [1]: high efficacy
- Efficacy against HSV-1 [2]: high efficacy
- Effect on interferon (IFN) signaling [3]: strongly inhibited
